Data as given in patent publication US11207427B2, “System and method for diagnosis of astrocytic brain tumor” (Dignity Health, priority 2012, dated 2021).
“Also recorded” adds a separate entry of the source.

Legend:
[1] = system: U251 derived tumor; assay: SR101 staining of acute slices from U251 rodent xenografts, confocal imaging; type: cell-based, human astrocytoma cells implanted in nude rats
Description: Animals were anesthetized by intramuscular injection of a mixture of 10 mg/kg xylazine and 80 mg/kg ketamine (Wyeth, Madison, N.J.) and placed in a small animal stereotactic headframe (Model 900, David Kopf Instruments, Tujunga, Calif.). A 10-mm incision was made starting between the animal's eyes, exposing bregma. A bur hole was made 3.5 mm lateral to bregma. U251 or MC116 cells were infused at a depth of 4.5 mm below the surface of the brain after the syringe (Hamilton) was advanced 5.0 mm to create a 0.5-mm pocket. The cell suspension was infused using a UMP3-1 UltraMicroPump microinjector (WPI, Sarasota, Fla.) set to a volume of […] with an infusion rate of 3.00 μL/minute. The needle was withdrawn 2 minutes after the injection to minimize backflow of the cell suspension. The bur hole was covered with bone wax and the skin incision was sutured.
Twenty days post-implantation, rats were deeply anesthetized using the xylazine/ketamine mixture as described previously. Animals were rapidly decapitated, brains were removed, and coronal cortical slices (350 μm thick) were cut on a vibratome (Trent's aCSF protocol). Slices were then incubated at room temperature in aCSF containing 5 uM SR101 for 20 minutes followed by a 10 minute wash in aCSF.
(§1) SR101-labeled samples were placed in uncoated No. 1.5 glass-bottom dishes and positioned on the stage of a Zeiss 710 laser scanning confocal microscope equipped with a 40×/1.2 NA water emersion objection. We imaged SR101 by exciting the fluorophore with a 561 nm diode laser and collecting 595 nm-625 nm emission. The confocal aperature was set to Airy unit for all imaging. The laser and gain values were set to fill the dynamic range of the photomultiplier tube, and the frame size was set to sample at nyquist. Images were collected in 8 and 12 bit format absent of non-linear processing. An unstained adjacent tissue sample was imaged with each sample. In some cases, large field-of-view tiled and optically sectioned images were rapidly acquired using a Zeiss line-sweeping confocal microscope. […]

[2] = system: human glioma cell line U251; assay: In vitro SR101 labeling of cultured astrocytoma cells; type: cell-based; details: 5 uM SR101, 20 minutes, DIC imaging with fluorescence overlay
Description: We acquired human glioma cell line U251 and human CNS lymphoma cell line MC116 from ATCC. Cells were maintained in culture with DMEM media supplemented with 10% FBS, and RPMI media supplemented with 20% FBS respectively (all from Invitrogen, Grand Island, N.Y.). Cells were grown at 37° C. in a humidified incubator under 5% CO2.
We labeled U251 glioma cells by seeding a collagen-coated glass-bottom dish (MatTek) with 100,000 cells. After 24 hours, media was replaced with aCSF containing 5 uM SR101 (Sigma) for 20 minutes, followed by two 5 minute washes with standard aCSF.
as §1

[3] = system: GFAP-positive astrocytoma cells (U251); assay: Fixable SR101 co-labeling with GFAP in astrocytoma xenograft acute slices, confocal stereology; type: cell-based, human astrocytoma cells implanted in nude rats; details: for cells positive for fixable SR101 in astrocytoma tumor regions: tumor core, acute slices, GFAP and DAPI counterstain
Description: (§2) Xenograft acute slices were incubated with the fixable version of SR101 (Texas Red Hydrazide; Sigma), washed at room temperature, and fixed with 4% paraformaldehyde for 12 hours at 4 degrees C. Slices were then rinsed in phosphate buffered saline, permeabilized with 0.3% triton, and blocked with CAS block (Invitrogen) (reference Pierre's paper). GBM xenograft slices were incubated 12-hours in anti-GFAP primary antibody (Millipore; 1:500), and Lymphoma sections were incubated 12-hours in anti-CD20 primary antibody (Millipore; 1:250). Sections were then rinsed and incubated with AlexaFluor488 secondary antibody (Invitrogen), followed by nuclear counterstaining with Dapi (Invitrogen). Fluorescently labeled sections were mounted on slides with vectashield (Vector labs) and No1.5 coverslips (VWR).
We randomly selected one rostral, midline, and caudal acute slice from each brain containing tumor incubated with fixable SR101. Glioma slices were immunofluorescently stained for GFAP, and slices containing lymphoma were stained for CD20. Ten randomly selected 150 um^2 tumor areas in each slice were optically sectioned to 50 um with a Zeiss 710LSM. The first […] of each image stack was discarded to minimize counts from cells damaged during sectioning. A maximum intensity projection image was generated from the remaining 45 um, and a stereology dissector was overlaid onto the image. Cells within the dissector, and those in contact with its left and bottom edges were counted for either GFAP or CD20 positivity, and for SR101 positivity. The percent overlap between immunostaining and SR101 positivity was calculated. […]
(§3) Next, we incubated acute slices from astrocytoma and CNS lymphoma animal models with fixable-SR101 and quantified the staining localization to GFAP for astrocytoma slices and CD20 for lymphoma slices. We adapted standard stereology approaches to quantify tumor cells labeled with fixable-SR101 and GFAP or CD20 antibodies. […]

[4] = system: human brain tumor biopsies; assay: SR101 staining of fresh human brain tumor biopsies, confocal imaging; type: cell-based
Description: This research was approved by the institutional review board at St. Joseph's Hospital and Medical Center and all surgery was performed at the Barrow Neurological Institute. All subjects were consented pre-operatively for participation. Samples were obtained at the time of craniotomy from within the tumor mass at a location determined to be safe by the surgeon. The samples, averaging 4×2×2 mm in size, were transferred into ice-cold artificial cerebrospinal fluid (aCSF) containing 5 uM SR101. Samples were then transferred from the operating room to the laboratory, rinsed with aCSF (10 minutes), and immediately imaged.
SR101-labeled samples were placed in uncoated No. 1.5 glass-bottom dishes and positioned on the stage of a Zeiss 710 laser scanning confocal microscope equipped with a 40×/1.2 NA water emersion objection. We imaged SR101 by exciting the fluorophore with a 561 nm diode laser and collecting 595 nm-625 nm emission. The confocal aperature was set to Airy unit for all imaging. The laser and gain values were set to fill the dynamic range of the photomultiplier tube, and the frame size was set to sample at nyquist. Images were collected in 8 and 12 bit format absent of non-linear processing. An unstained adjacent tissue sample was imaged with each sample. In some cases, large field-of-view tiled and optically sectioned images were rapidly acquired using a Zeiss line-sweeping confocal microscope. Frame size for this system was fixed to 512×512 by a linear charged coupled device (CCD) array.
After we identified SR101's ability to rapidly label and differentiate astrocytoma cells and reactive astrocytes in animal models, we tested its utility as an intraoperative diagnostic agent. We determined the feasibility of intraoperatively identifying astrocytic brain tumors by confocal fluorescence imaging of fresh human brain tumor biopsies labeled with SR101. We screened samples from 60* patients with a total of 10 common human brain tumor types. The diagnosis as determined by traditional immunohistochemistry and paraffin-embedded hematoxylin and eosin histopathology was accepted as the final diagnosis for the purposes of comparison.
Tissue samples were transported in artificial cerebrospinal fluid and imaged within 30-40 minutes of resection. We first found SR101 filled the cytoplasm of astrocytes in non-tumor burdened brain (FIG. 4A). Next, we studied tissue sampled from tumor margins and found SR101 filled the cytoplasm of reactive astrocytes and tumor cells in these regions (FIG. 4B). […] At higher magnification we observed that SR101 delineated some cell nuclei and identified nuclear atypia which is a common feature of some gliomas (FIG. 4C).

[5] = system: CD20 positive lymphoma cells (MC116); assay: SR101 / fixable SR101 staining and CD20 co-labeling in CNS lymphoma xenograft acute slices, confocal stereology; type: cell-based, human CNS lymphoma cells implanted in nude rats
Description: as §2, with “Fluorescently labeled sections were mounted on slides with vectashield (Vector labs) and No1.5 coverslips (VWR).” left out
We randomly selected one rostral, midline, and caudal acute slice from each brain containing tumor incubated with fixable SR101. […] Cells within the dissector, and those in contact with its left and bottom edges were counted for either GFAP or CD20 positivity, and for SR101 positivity. The percent overlap between immunostaining and SR101 positivity was calculated. […]
as §3

[6] = system: human glioma cells in a rodent xenograft; assay: In vivo labeling after intra-arterial injection of fixable SR101; design: species or system rat; details: brains processed two hours post-injection
Description: Twenty days post-implantion, rats were deeply anesthetized using the previously described ketamin/xylazine mixture. The rats were then intra-arterially injected with Texas red hydrazide. Two hours post-injection brains were perfused, fixed, and sectioned on a cryostat. Sections were mounted on slides and imaged with a Zeiss LSM 710 confocal microscope.

| SMILES | mean fluorescence intensity (MFI), tumor ([1]; SR101-labeled tumor core, acute slice, 5 uM SR101 20 minutes) | mean fluorescence intensity (MFI), background ([1]; background of SR101-labeled tumor core image, acute slice) | difference in mean fluorescence intensity between U251 cells and reactive astrocytes ([1]; normalized to background, n=9 optical sections from 3 acute slices) | SR101 labeling of cultured U251 astrocytoma cells [2] | co-localization with GFAP-positive cells in astrocytoma regions ([3]; U251 xenograft acute slices, fixable SR101, stereology) [%] | staining of human lymphoma ([4]; human biopsies) | astrocytoma cases selectively stained ([4]; human biopsies versus final diagnosis) | staining of cells from astrocytoma tumor cores ([4]; human biopsies, 5 uM SR101) | staining of non-astrocytic tumor samples / other CNS neoplasms ([4]; human biopsies, 5 uM SR101) | labeling of low grade human oligodendroglioma samples ([4]; human biopsies, samples often GFAP positive) | co-localization with CD20 positive cells in lymphoma tumor regions ([5]; MC116 xenograft acute slices, fixable SR101, stereology) [%] | SR101 signal / cells labeled in lymphoma regions ([5]; acute slices from nude rats implanted with human CNS lymphoma cells) | cells positive for fixable SR101 in astrocytoma tumor regions [3] | cells positive for fixable SR101 in astrocytoma tumor regions ([3]; listed as Fixable-SR101) | in vivo labeling of tumor cells and tumor margin [6] |
| --- | --- | --- | --- | --- | --- | --- | --- | --- | --- | --- | --- | --- | --- | --- | --- |
| O=S(=O)([O-])c1cc(S(=O)(=O)O)ccc1C1=c2cc3c4c(c2Oc2c1cc1c5c2CCCN5CCC1)CCC[N+]=4CCC3 [SR101, Sulforhodamine 101] | 102.84 | 8.74 | no statistically significant difference; also recorded: did not differ | filled the cytoplasm of the cultured cell and clearly delineated cell nuclei | 79.6 | negative; also recorded: failed to stain | 14 of 15 | strong cytoplasmic staining | did not stain; also recorded: non-specific background staining | does not stain; also recorded: did not label | 1.97 | minimal; also recorded: small number of cells | – | – | – |
| NNS(=O)(=O)c1ccc(C2=c3cc4c5c(c3Oc3c2cc2c6c3CCCN6CCC2)CCC[N+]=5CCC4)c(S(=O)(=O)[O-])c1 [fixable SR101, Texas Red Hydrazide] | – | – | – | – | – | – | – | – | – | – | – | – | majority of cells were positive | labeled the majority of cells | specific in vivo labeling of human glioma cells |
